This is an account of results in article PMC4393269, “Carvacrol Codrugs: A New Approach in the Antimicrobial Plan” (PLoS ONE, 2015).

In general, MBC refers to the lowest tested concentration that kills the bacteria rather than only halting them. As usually defined, the MIC is the least concentration at which growth counts as inhibited. In general, MFC refers to the lowest tested concentration that kills the fungus rather than only halting it.

What all share (type): cell-based
Data set [1] relates to E. coli ATCC 8739. Description: Broth microdilution MIC/MBC on planktonic cells. The settings on record: Escherichia coli. The method, then:
(§1) Two Gram-positive (S. aureus ATCC 29213 and S. epidermidis ATCC 35984) and two Gram-negative (E. coli ATCC 8739 and P. aeruginosa ATCC 9027) strains, and one fungal strain (C. albicans ATCC 10231) were used for the detection of antibacterial activity of carvacrol, NAC, Ac-Cys(Allyl)-OH, and carvacrol codrugs 1–10. All tested compounds were dissolved in 20% DMSO to prepare the stock solution (100 mg/mL). The final concentration of DMSO in each well appeared to be not toxic for all studied microorganisms, as confirmed by the solvent control test included in the study.
(§2) The effects of carvacrol codrugs 1–10 and reference compounds on planktonic cells were evaluated by Minimum Inhibitory Concentration (MIC) and Minimum Bactericidal Concentration (MBC) determination using the broth microdilution method according to EUCAST guidelines. Bacterial suspensions, grown in Mueller–Hinton Broth (MHB) at logarithmic phase, were incubated on microtiter plates at a concentration of 5 x 10^5 CFU/mL, with several dilutions (0.07–40 mg/mL) for 24 h at 37°C. The MIC was defined as the lowest concentration of substances giving a complete inhibition of visible growth in comparison with a control well, and the MBC was determined as the lowest concentration at which no bacterial growth occurred on Mueller–Hinton Agar plates.
(§3) Data were obtained from at least three independent experiments performed in duplicate. The susceptibility of the bacterial strains against ciprofloxacin was used as an internal standard during MIC determinations.

Data set [2] has as its system P. aeruginosa ATCC 9027. The experiment in a line: Broth microdilution MIC/MBC on planktonic cells. Particulars: Pseudomonas aeruginosa. The method, then: as §1, §2, §3
In general terms: In broth dilution the organism is exposed to a series of concentrations in liquid medium.

Data set [3] concerns S. aureus ATCC 29213. Description: Broth microdilution MIC/MBC on planktonic cells. Particulars: Staphylococcus aureus. The method, then:
as §1, §2, §3

For data set [4], the system named is S. epidermidis ATCC 35984. The experiment in a line: Broth microdilution MIC/MBC on planktonic cells. Particulars: Staphylococcus epidermidis. How it is done:
as §1, §2, §3

Data set [5] deals with C. albicans ATCC 10231. The experiment in a line: Broth microdilution MIC/MFC. Particulars: Candida albicans, ATCC10231. The method, then:
as §1
The MIC detection of C. albicans ATCC 10231 was performed using the broth microdilution method according to EUCAST guidelines in RPMI 1640 plus 2% glucose with a final inoculum of 1–5 x 10^5 CFU/mL for 24–48 h at 37°C. The Minimum Fungicidal Concentration (MFC) was determined as the lowest concentration of substances at which no fungal growth occurred on Sabouraud agar plates.
as §3

Data set [6] has as its system C. albicans ATCC 10231. Description: Antibiofilm assay on established biofilm (BIC/BEC). The method, then:
(§4) The efficacy on established biofilm was evaluated by determining Biofilm Inhibitory Concentration (BIC) and Biofilm Eradication Concentration (BEC) according to the method described by Johnson et al. with some modifications. Bacterial suspensions, grown in Tryptic soy broth supplemented with 0.5% (v/v) glucose at logarithmic phase, as well as C. albicans grown in RPMI 1640 plus 2% glucose, were incubated on flat-bottomed microtiter plates at a concentration of 5 x 10^5 CFU/mL. After 24 h of incubation at 37°C, the planktonic cells were gently removed and wells were washed with sterile phosphate-buffered saline solution (PBS) pH 7.3 and filled with carvacrol, carvacrol codrug 4, Ac-Cys(Allyl)-OH with dilutions ranging from the MIC values to a maximum concentration of 50 mg/mL. The OD600 was measured at time 0 and after incubation for 24 h at 37°C. The BIC values were determined as the lowest concentrations where no growth occurred in the supernatant fluid, confirmed by no increase in optical density compared with the initial reading. The BEC values were determined as the lowest concentrations at which no bacterial growth occurred on Tryptic soy agar for bacteria and on Sabouraud agar for C. albicans. Data were obtained from at least three independent experiments performed in duplicate.

Data set [7] deals with E. coli ATCC 8739. Description: Antibiofilm assay on established biofilm (BIC/BEC). The method, then:
as §4

The subject of data set [8] is P. aeruginosa ATCC 9027. The experiment in a line: Antibiofilm assay on established biofilm (BIC/BEC). The method, then: as §4
In data set [9] the test system is S. aureus ATCC 29213. The experiment in a line: Antibiofilm assay on established biofilm (BIC/BEC). Particulars: S. aureus ATCC 29213 established biofilm. The method, then: as §4
Data set [10] concerns S. epidermidis ATCC 35984. The experiment in a line: Antibiofilm assay on established biofilm (BIC/BEC). The method, then: as §4
The test system of data set [11] is human red blood cells (h-RBC). Description: Hemolytic activity. The settings on record: 4% h-RBC, 1 h at 37°C. How it is done: Experimental protocols to study hemolysis on human red cells were approved by Ethics Committee of the University “G. d’Annunzio” Chieti-Pescara. Human red cells were from two volunteers, who signed the informed consent for this study.
Hemolytic activity of carvacrol codrugs 1–10 was tested against human red blood cells (h-RBC). Fresh human blood, collected with EDTA, was centrifuged at 3000 rpm for 5 min then washed three times with PBS pH 7.3. Red blood cells were diluted to 4% in PBS and incubated with different codrugs concentrations ranging from 25 to 0.05 mg/mL. After 1 h of incubation at 37°C, the suspensions were sedimented by centrifugation and the release of hemoglobin was determined by absorbance measurement at 405 nm and compared with a 0% hemolysis control (PBS) and a 100% hemolysis control (PBS with 1% v/v Triton X-100). The percentage of hemolysis was calculated using the following equation: Hemolysis (%) = [(OD405sample - OD4050% lysis control)/(OD405100% lysis control - OD4050% lysis contro)] X 100

[12] abbreviates: ATCC8739, E. coli ATCC 8739, 24 h at 37°C, read-out: MIC.
[13] abbreviates: ATCC8739, E. coli ATCC 8739, read-out: MBC.
The mark [14] stands for this setting: ATCC9027, P. aeruginosa ATCC 9027, 24 h at 37°C, read-out: MIC.
Setting [15] is: ATCC9027, P. aeruginosa ATCC 9027, read-out: MBC.
Where [16] appears, read: ATCC29213, S. aureus ATCC 29213, 24 h at 37°C, read-out: MIC.
Setting [17] is: ATCC29213, S. aureus ATCC 29213, read-out: MBC.
Setting [18] is: ATCC35984, S. epidermidis ATCC 35984, 24 h at 37°C, read-out: MIC.
The mark [19] stands for this setting: ATCC35984, S. epidermidis ATCC 35984, read-out: MBC.
Setting [20] is: C. albicans ATCC 10231, 24–48 h at 37°C, read-out: MIC.
[21] abbreviates: C. albicans ATCC 10231, read-out: MFC.

≈ marks a conversion by molar mass, not a printed value. Read-outs that look alike come from different tables or passages of the source.

Turning to `Cc1ccc(C(C)C)cc1O` [Carvacrol, 2-methyl-5-[1-methylethyl]phenol], the MBC in the data set on E. coli ATCC 8739 [1] (ATCC8739) was 1250 µg/mL (≈ 8.32 mM); against P. aeruginosa ATCC 9027 [2] (ATCC9027) it was 10000 µg/mL (≈ 66.6 mM); against S. aureus ATCC 29213 [3] (ATCC29213), 1250 µg/mL (≈ 8.32 mM); in [4] (ATCC35984) it was 1250 µg/mL (≈ 8.32 mM). Further, the minimal inhibitory concentration (MIC) is 600 µg/mL (≈ 3.99 mM) with E. coli ATCC 8739 [1] (ATCC8739, 24 h); 5000 µg/mL (≈ 33.3 mM) against P. aeruginosa ATCC 9027 [2] (ATCC9027, 24 h); 600 µg/mL (≈ 3.99 mM) with S. aureus ATCC 29213 [3] (ATCC29213, 24 h); 300 µg/mL (≈ 2 mM) in data set [4] (ATCC35984, 24 h); 300 µg/mL (≈ 2 mM) with C. albicans ATCC 10231 [5]. This molecule yielded a minimal fungicidal concentration (MFC) with C. albicans ATCC 10231 [5] of 600 µg/mL (≈ 3.99 mM). Also, the “BEC as multiple of MIC” value is on record as “MFC” in the data set with C. albicans ATCC 10231 [6] (C. albicans ATCC 10231), 64MIC with E. coli ATCC 8739 [7] (E. coli ATCC 8739), 2MIC in the data set with P. aeruginosa ATCC 9027 [8] (P. aeruginosa ATCC 9027) and 2MIC in data set [10] (S. epidermidis ATCC 35984). Further, the BEC in the data set with C. albicans ATCC 10231 [6] (C. albicans ATCC 10231 established biofilm) amounted to 0.6 mg/mL; with E. coli ATCC 8739 [7] (E. coli ATCC 8739 established biofilm) it was 40 mg/mL; with P. aeruginosa ATCC 9027 [8] (P. aeruginosa ATCC 9027 established biofilm), 10 mg/mL; in the data set with S. aureus ATCC 29213 [9] it was 2.5 mg/mL; in data set [10] (S. epidermidis ATCC 35984 established biofilm), 0.6 mg/mL. In addition, the BIC is 0.3 mg/mL in the data set on C. albicans ATCC 10231 [6] (C. albicans ATCC 10231 established biofilm, 24 h); 40 mg/mL with E. coli ATCC 8739 [7] (E. coli ATCC 8739 established biofilm, 24 h); 5 mg/mL with P. aeruginosa ATCC 9027 [8] (P. aeruginosa ATCC 9027 established biofilm, 24 h); 1.2 mg/mL in the data set on S. aureus ATCC 29213 [9] (24 h); 0.3 mg/mL in data set [10] (S. epidermidis ATCC 35984 established biofilm, 24 h). The “BIC as multiple of MIC” value in the data set with E. coli ATCC 8739 [7] (E. coli ATCC 8739) amounted to 64MIC.
Turning to `CC(=O)N[C@@H](CS)C(=O)Oc1cc(C(C)C)ccc1C` [codrug 1, NAC-CAR], the MIC came to 10000 µg/mL (≈ 33.9 mM) in the data set with E. coli ATCC 8739 [1] (setting [12]); 10000 µg/mL (≈ 33.9 mM) with P. aeruginosa ATCC 9027 [2] (setting [14]); 10000 µg/mL (≈ 33.9 mM) with S. aureus ATCC 29213 [3] (setting [16]); 5000 µg/mL (≈ 16.9 mM) in data set [4] (setting [18]); 300 µg/mL (≈ 1.02 mM) in the data set on C. albicans ATCC 10231 [5] (setting [20]). Also, the MBC stood at 10000 µg/mL (≈ 33.9 mM) in the data set with E. coli ATCC 8739 [1] (setting [13]), 10000 µg/mL (≈ 33.9 mM) in the data set on P. aeruginosa ATCC 9027 [2] (setting [15]), 10000 µg/mL (≈ 33.9 mM) with S. aureus ATCC 29213 [3] (setting [17]) and 20000 µg/mL (≈ 67.7 mM) in data set [4] (setting [19]). For the same molecule, the MFC with C. albicans ATCC 10231 [5] (setting [21]) worked out at 300 µg/mL (≈ 1.02 mM). The “hemolytic activity, maximum at the tested concentrations” value in data set [11] (25 to 0.05 mg/mL) is no more than 40%.
On to `CSC[C@H](NC(C)=O)C(=O)Oc1cc(C(C)C)ccc1C` [codrug 2, N-Ac-Cys(Methyl)-CAR], for which the MIC was found to be 10000 µg/mL (≈ 32.3 mM) with E. coli ATCC 8739 [1] (setting [12]); 10000 µg/mL (≈ 32.3 mM) in the data set on P. aeruginosa ATCC 9027 [2] (setting [14]); 10000 µg/mL (≈ 32.3 mM) in the data set on S. aureus ATCC 29213 [3] (setting [16]); 2500 µg/mL (≈ 8.08 mM) in data set [4] (setting [18]); 5000 µg/mL (≈ 16.2 mM) in the data set with C. albicans ATCC 10231 [5] (setting [20]). Besides, the MBC (in the data set on E. coli ATCC 8739 [1] (setting [13]); in the data set with P. aeruginosa ATCC 9027 [2] (setting [15]); in the data set with S. aureus ATCC 29213 [3] (setting [17]); in [4] (setting [19])) was 10000 µg/mL (≈ 32.3 mM) throughout. In addition, the MFC with C. albicans ATCC 10231 [5] (setting [21]) is 5000 µg/mL (≈ 16.2 mM). The “concentration at which hemolytic activity is over 50%” value in [11] is reported as “over 20 mg/mL”.
With `CCSC[C@H](NC(C)=O)C(=O)Oc1cc(C(C)C)ccc1C` [codrug 3, N-Ac-Cys(Ethyl)-CAR], the minimum inhibitory concentration (MIC) with E. coli ATCC 8739 [1] (setting [12]) was 10000 µg/mL (≈ 30.9 mM); in the data set with P. aeruginosa ATCC 9027 [2] (setting [14]), 10000 µg/mL (≈ 30.9 mM); in the data set with S. aureus ATCC 29213 [3] (setting [16]) it was 10000 µg/mL (≈ 30.9 mM); in data set [4] (setting [18]) it was 10000 µg/mL (≈ 30.9 mM); with C. albicans ATCC 10231 [5] (setting [20]) it was 2500 µg/mL (≈ 7.73 mM). Besides, the minimal bactericidal concentration (MBC) (in the data set on E. coli ATCC 8739 [1] (setting [13]); in the data set on P. aeruginosa ATCC 9027 [2] (setting [15]); in the data set with S. aureus ATCC 29213 [3] (setting [17]); in data set [4] (setting [19])) was 10000 µg/mL (≈ 30.9 mM) in each case. For the same molecule, the minimal fungicidal concentration (MFC) in the data set with C. albicans ATCC 10231 [5] (setting [21]) turned out to be 2500 µg/mL (≈ 7.73 mM). Also, the “concentration at which hemolytic activity is over 50%” value in data set [11] was “over 20 mg/mL”.
